Test results as given in patent EP3710011B1, “PENTACYCLIC TRITERPENES FOR THE TREATMENT OF AN ORAL DISEASE” (PIERRE FABRE MEDICAMENT, priority 2017, dated 2019).
Where two headings read alike, the source gives them in different places.

What was measured:
[1] = test system: Staphylococcus aureus CIP4.83; assay: Determination of minimal inhibitory (CMI) and minimal bactericidal (CMB) concentration, liquid micro-method then subculture on agar; format: cell-based; conditions: for CMB / CMI / CMB (DMSO dilution) / CMI (DMSO dilution): S. aureus; for CMB / CMI: purified sample dissolved in DMSO; for CMB (DMSO dilution): real dilution (DMSO) at the CMB point; for CMI (DMSO dilution): real dilution (DMSO) at the CMI point
Method: • L'échantillon « Extrait CCV » obtenu tel que dans l'exemple 1 est titré à 150 µg/ml en Célastrol, 40 µg/ml en Tingénine A et 20 µg/ml en Tingénine B, dissouts dans du pentylène glycol 100 %. Pour les besoins du dosage, il est dilué à 2 % dans de l'eau pour préparation injectable (PPI). • L'échantillon « Tingénine A » est titré à 150 µg/ml dans du DMSO 10 %. • L'échantillon « Tingénine B » est titré à 150 µg/ml du DMSO 10 %. • L'échantillon « Célastrol » est titré à 150 µ/ml dans du DMSO 10 %.
Les souches bactériennes utilisées sont : • Staphylococcus aureus CIP4.83 entretenue sur milieu gelosé Trypticase-soja à 36 +/- 1 °C. • Fusobacterium nucleatum CIP101130T entretenue sur milieu gélosé Columbia + 5 % de sang de mouton à 36+/-1 °C en anaérobiose
La détermination de la Concentration Minimale Inhibitrice (CMI) est réalisée par micro-méthode en milieu liquide. 100 µL de milieu de culture Muller Hinton sont déposés dans chaque puits d'une microplaque de 96 puits stérile. 100 µL de l'échantillon à tester sont déposés dans la colonne 1 de la microplaque (deux puits par extrait à tester). Des dilutions de raison 2 sont réalisées de la façon suivante : 100 µL sont prélevés dans les puits de la colonne 1 puis ajouté et mélangés aux puits de la colonne 2. Cette opération est répétée jusqu'à la colonne 10. Les 100 µL prélevés dans la colonne 10 sont éliminés. La colonne 11 est utilisée comme témoin positif (milieu de culture + bactérie à tester). La colonne 12 est utilisée comme témoin négatif (milieu de culture seul). La microplaque est ensemencée (hors témoin négatif de croissance). Après une incubation de 16 à 24 h l'observation de la croissance à l'œil nu permet de déterminer une CMI (la plus faible concentration en extrait qui inhibe la croissance).
La détermination de la Concentration Minimale Bactéricide (CMB) est réalisée par repiquage des microplaques CMI sur un milieu Muller Hinton gélosé. Après incubation, la CMB correspond à la plus faible concentration de l'extrait testé pour laquelle on observe une absence de croissance.
Dans les tableaux 1 et 2 présentant les résultats comparatifs des différents échantillons testés sont indiqués : • 1. Pour l'extrait CCV, les CMI/CMB sont des concentrations équivalentes en célastrol. En effet, cet extrait est une solution qui contient majoritairement du Célastrol (Célastrol > 50 %, Tingénine A > 5 % et Tingénine B > 5 %). L'extrait est dissout dans du Pentylène Glycol (PG), on a le % (P/P) correspondant à la dilution réelle au point de CMI ou de CMB, et on en déduit la concentration équivalente en Célastrol grâce au titre (150 µg/ml) quantifié par HPLC. • 2. Pour les échantillons de Célastrol, de Tingénine A et de Tingénine B purifiés et dissouts dans le DMSO, le % mentionné correspond à la dilution réelle au point de CMI ou de CMB. • 3. Pour les solvants de contrôle DMSO et Pentylène Glycol (PG) testés en parallèle, le % correspond à la dilution réelle au point de CMI ou de CMB.

[2] = test system: kératinocytes humains oraux; assay: ELISA of IL-8, hBD-2 and MMP-9 secreted by oral keratinocytes stimulated with IL-17, IL-22 and TNF-alpha; format: cell-based; conditions: 48h stimulation; for inhibition at 10 µM: Keratinocyte
Method: (§1) • L'échantillon « Extrait CCV » est obtenu tel que décrit dans l'exemple 1 et est dilué dans du DMSO 0,4% afin d'obtenir une concentration en célastrol de 137 µg/mL; trois doses sont testées, à savoir 10, 30 et 100 ng/mL. • L'échantillon « Célastrol » 150 µg/mL dans du DMSO 0,4 %; trois doses sont testées à savoir 10, 30 et 100 ng/mL.
(§2) Les échantillons contrôles sont les suivants : • L'échantillon témoin négatif « DMSO » (DMSO à 0,4%); et • L'échantillon témoin positif « Inhibiteur JAK » comprenant 10 µM d'inhibiteur JAK (JAK Inhibitor I - CAS 457081-03-7 - Calbiochem).
(§3) La lignée cellulaire utilisée est une lignée de kératinocytes humains oraux (CliniSciences ref.2610-SC). Cette lignée est cultivée à 37 °C, sous atmosphère 5 % de CO2 dans un milieu adapté (Oral Keratinocyte medium OKM supplémenté avec de la pénicilline 100 U/mL et de la streptomycine 100 µg/mL).
(§4) Les kératinocytes humains oraux sont ensemencés dans des puits de plaques à 24 puits (75 000 cellules/puits) et cultivés pendant 24h. Le milieu de culture est alors remplacé par du milieu frais contenant les échantillons à tester, et les cellules sont à nouveau incubées pendant 24h. L'opération est renouvelée à nouveau en présence d'un mix de cytokines stimulatrice des kératinocytes : IL-17, IL-22 et TNF-alpha à 3 ng/ml chacune. Le temps de culture est de 24h pour les expériences de RT-pPCR et de 48 pour les expériences d'ELISA. Les cellules sont ensuite lavées dans une solution de PBS et congelées immédiatement à - 80 °C.
(§5) Les expériences ont été réalisées en triplicats.
La quantité d'IL8, hBD-2 (DEBF4A) et de MMP-9 sécrétée par les kératinocytes dans le milieu de culture après 48h de stimulation est mesurée par ELISA.

[3] = test system: kératinocytes humains oraux; assay: RT-qPCR of inflammatory marker expression in oral keratinocytes stimulated with IL-17, IL-22 and TNF-alpha; format: cell-based
Method: as §1, §2, §3, §4, §5
L'expression des marqueurs IL-8, CXCL1, DEBF4A, S100A7, IL-36 gamma et MMP9, par les kératinocytes est déterminée par RT-qPCR comme décrit dans la littérature avec des kits de Reverse transcriptase (Roche) et de PCR quantitative. Un témoin positif de PCR (GAPDH), exprimé constitutivement, est réalisé en parallèle afin de normaliser les résultats obtenus.

[4] = test system: lymphocytes T CD4+; assay: Anti-TH17 activity: cytokines secreted by CD4+ T lymphocytes activated with anti-CD3/anti-CD28 (Multiplex Immunoassays); format: cell-based, humaines; conditions: 2 µM
Method: L'échantillon « Extrait CCV » est obtenu tel que dans l'exemple 1 et est dilué dans 0,4 % DMSO afin d'obtenir les différentes concentrations finales suivantes après ajout dans les puits : • Extrait 2 (titré en Célastrol à 9 ng/ml); • Extrait 3 (titré en Célastrol à 30 ng/ml); et • Extrait 4 (titré en Célastrol à 90 ng/ml).
Les échantillons contrôles sont les suivants : • Contrôle négatif 1 (solution DMSO à 0,4 %); et • Contrôle positif 5 : dexaméthasone (Dexa) à 2 µM (concentration finale dans le puits).
Les cellules T humaines ont été isolées à partir de cellules mononuclées de sang de deux donneurs sur Ficoll Paque plus (selon le protocole du fabricant). Les cellules CD4+ sont isolées par tri positif (Kit Miltenyi Biotec (CD4) et colonne LS) et remises en suspension dans du milieu de culture RPMI (Sigma Aldrich : L-Glutamine et sérum foetal bovin à 10 %) additionné de […] de streptomycine et 100 U/mL de pénicilline.
Les Lymphocytes en suspension sont répartis dans des puits de microplaques. […]
La quantité de cytokine IL17A, IFN gamma, IL22, TNF alpha et IL6 sécrétée dans le surnageant de culture des lymphocytes est ensuite mesurée par la méthode Multiplex Immunoassays (tel que notamment décrit dans Jager et al. Clin. Diagn. Lab. Immunol. 2003, 10(1), 133-139).

Row | Structure (SMILES) | CMB [1] | CMI [1] | CMB (DMSO dilution) [1] | CMI (DMSO dilution) [1] | also measured
1 | CC1=C(O)C(=O)C=C2C1=CC=C1[C@@]2(C)CC[C@@]2(C)[C@@H]3C[C@](C)(C(=O)O)CC[C@]3(C)CC[C@]12C [Célastrol] | 0,59 µg/ml | 0,29 µg/ml | 0,04% | 0,01% | inhibition de l'expression du marqueur MMP9 ([2]; at 30 ng/ml): ~40%; expression des marqueurs IL-8, DEFBA4, S100A7, IL-36 gamma et MMP9 ([3]; 10, 30 and 100 ng/mL, 24h stimulation): inhibition claire, significative et dose dépendante
2 | CC1=C(O)C(=O)C=C2C1=CC=C1[C@@]2(C)CC[C@@]2(C)[C@@H]3C[C@@H](C)C(=O)C[C@]3(C)CC[C@]12C [Tingénine A] | 2,34 µg/ml | 1,17 µg/ml | 0,08% | 0,08% | –
3 | CC1=C(O)C(=O)C=C2C1=CC=C1[C@@]2(C)CC[C@@]2(C)[C@@H]3C[C@@H](C)C(=O)[C@@H](O)[C@]3(C)CC[C@]12C [Tingénine B, 22 béta-Hydroxy-tingénone] | 1,17 µg/ml | 0,59 µg/ml | 0,08% | 0,04% | activité anti S. aureus, fois supérieure à celle de la Tingénine A ([1]; ratio versus Tingénine A): 2-4 fois
4 | C[C@@H]1C[C@H]2[C@@H]3CCC4=CC(=O)C=C[C@]4(C)[C@@]3(F)[C@@H](O)C[C@]2(C)[C@@]1(O)C(=O)CO [dexaméthasone] | – | – | – | – | surexpression des cytokines IL-17A, IFN gamma, IL-22, TNF alpha et IL-6 [4]: inhibe la surexpression de toutes les cytokines
5 | CC(C)(C)c1nc2c3ccc(F)cc3c3c(=O)[nH]ccc3c2[nH]1 [inhibiteur JAK, JAK Inhibitor I] | – | – | – | – | augmentation de la sécrétion de MMP-9 ([2]; 10 µM): 60%; inhibition at 10 µM ([2]; 10 µM, read-out: inhibition de la sécrétion d'IL-8): 69%; inhibition at 10 µM ([2]; 10 µM, read-out: inhibition de la sécrétion de β-défensine-2): 82%; expression de l'IL-36 gamma et de la MMP9 ([3]; 10 µM): n'inhibe ni l'IL-36 gamma ni la MMP9; expression d'IL8, de DEFB4A et de S100A7 ([3]; 10 µM, versus negative control): diminution de l'expression
